{"source": "patent US12459918B2", "about": "“Isoquinolinone derivatives serving as rock protein kinase inhibitors and use thereof” (GUANGZHOU OCUSUN OPHTHALMIC BIOTECHNOLOGY CO., LTD., priority 2019, dated 2025)", "key": {"[1]": {"system": "New Zealand rabbits with acute ocular hypertension", "test": "Intraocular pressure reduction experiment in New Zealand rabbits with acute ocular hypertension, experiment operation 1", "format": "in vivo", "conditions": "for Intraocular pressure in the left eye: left eye (not modeled); for Intraocular pressure in the right eye: right eye (induced ocular hypertension)", "description": "Experimental Example 3. Intraocular Pressure Reduction Experiment in New Zealand Rabbits with Acute Ocular Hypertension\nAcute ocular hypertension of rabbits were induced by anterior chamber injection of a viscoelastic agent and the intraocular pressure reduction action of compound 60 and compound 63 at different concentrations were explored by eye-drop administration.\nMale New Zealand rabbits, aged 97-127 days, weighted 2.5-3.4 kg, purchased from PizhouDongfang Breeding Co. Ltd.\nMale New Zealand rabbits were randomly divided into 8 rabbits/per group according to body weight using a computer-generated randomization method. The animals in each group were injected with medical sodium hyaluronate gel in the anterior chamber of right eye in a single dose, 100 μL/eye, to induce ocular hypertension. In 5-15 minutes, 3 hours and 6 hours after right eye modeling, both eyes were dropped with a solvent, K-115 or test samples (compound 60 at different concentrations) at a volume of 50 μL/eye and intraocular pressure of the animals was measured before administration and in 1, 2, 4, 6, 8 and 10 hours after administration, respectively."}, "[2]": {"system": "New Zealand rabbits with normal intraocular pressure", "test": "Intraocular pressure reduction experiment in New Zealand rabbits with normal intraocular pressure", "format": "in vivo", "conditions": "for Intraocular pressure in the left eye: 2.5 mg/mL group, left eye (saline or solvent); for Intraocular pressure in the right eye: 2.5 mg/mL in right eye; for Reduction magnitude of intraocular pressure: 2.5 mg/mL, left minus right eye", "description": "Experimental Example 2. Intraocular Pressure Reduction Experiment in New Zealand Rabbits with Normal Intraocular Pressure\nRabbits with normal intraocular pressure were adopted to screen intraocular pressure reduction actions of the potential compounds by eye-drop administration.\nMale New Zealand rabbits, aged 97-127 days, weighted 2.65-3.5 kg, purchased from PizhouDongfang Breeding Co. Ltd.\nThe male New Zealand rabbits were randomly divided into 8 rabbits/per group using a computer-generated randomization method Animals in each group were eye-dropped with different test samples in the right eye, and normal saline or solvent in the left eye, and the volume of the administration was both 50 μL/eye. The intraocular pressure of the animals was measured before administration and in 1, 2, 4, 6, 8 and 10 hours after the administration, respectively."}, "[3]": {"conditions": "2.5 mg/mL both eyes, 1 hour after administration"}, "[4]": {"conditions": "2.5 mg/mL both eyes, 2 hours after administration"}, "[5]": {"conditions": "2.5 mg/mL both eyes, 4 hours after administration"}, "[6]": {"conditions": "2.5 mg/mL both eyes, 6 hours after administration"}, "[7]": {"conditions": "2.5 mg/mL both eyes, 8 hours after administration"}, "[8]": {"conditions": "2.5 mg/mL both eyes, 10 hours after administration"}, "[9]": {"conditions": "2.5 mg/mL both eyes, before administration"}, "[10]": {"conditions": "5.0 mg/mL both eyes, 1 hour after administration"}, "[11]": {"conditions": "5.0 mg/mL both eyes, 2 hours after administration"}, "[12]": {"conditions": "5.0 mg/mL both eyes, 4 hours after administration"}, "[13]": {"conditions": "5.0 mg/mL both eyes, 6 hours after administration"}, "[14]": {"conditions": "5.0 mg/mL both eyes, 8 hours after administration"}, "[15]": {"conditions": "5.0 mg/mL both eyes, 10 hours after administration"}, "[16]": {"conditions": "5.0 mg/mL both eyes, before administration"}, "[17]": {"conditions": "10 mg/mL both eyes, 1 hour after administration"}, "[18]": {"conditions": "10 mg/mL both eyes, 2 hours after administration"}, "[19]": {"conditions": "10 mg/mL both eyes, 4 hours after administration"}, "[20]": {"conditions": "10 mg/mL both eyes, 6 hours after administration"}, "[21]": {"conditions": "10 mg/mL both eyes, 8 hours after administration"}, "[22]": {"conditions": "10 mg/mL both eyes, 10 hours after administration"}, "[23]": {"conditions": "10 mg/mL both eyes, before administration"}}}
{"compound": "Cc1cn(COC(=O)c2ccccc2)c(=O)c2cccc(S(=O)(=O)N3CCC(N)C3)c12", "note": "(stereo not drawn) [Compound 60]", "values": [{"measurement": "Intraocular pressure in the left eye", "setting": "[1]; [3]", "result": 5.00, "unit": "mmHg"}, {"measurement": "Intraocular pressure in the left eye", "setting": "[1]; [4]", "result": 6.63, "unit": "mmHg"}, {"measurement": "Intraocular pressure in the left eye", "setting": "[1]; [5]", "result": 8.29, "unit": "mmHg"}, {"measurement": "Intraocular pressure in the left eye", "setting": "[1]; [6]", "result": 10.71, "unit": "mmHg"}, {"measurement": "Intraocular pressure in the left eye", "setting": "[1]; [7]", "result": 12.17, "unit": "mmHg"}, {"measurement": "Intraocular pressure in the left eye", "setting": "[1]; [8]", "result": 12.00, "unit": "mmHg"}, {"measurement": "Intraocular pressure in the left eye", "setting": "[1]; [9]", "result": 12.00, "unit": "mmHg"}, {"measurement": "Intraocular pressure in the right eye", "setting": "[1]; [3]", "result": 22.33, "unit": "mmHg"}, {"measurement": "Intraocular pressure in the right eye", "setting": "[1]; [4]", "result": 19.75, "unit": "mmHg"}, {"measurement": "Intraocular pressure in the right eye", "setting": "[1]; [5]", "result": 20.29, "unit": "mmHg"}, {"measurement": "Intraocular pressure in the right eye", "setting": "[1]; [6]", "result": 17.00, "unit": "mmHg"}, {"measurement": "Intraocular pressure in the right eye", "setting": "[1]; [7]", "result": 14.54, "unit": "mmHg"}, {"measurement": "Intraocular pressure in the right eye", "setting": "[1]; [8]", "result": 12.54, "unit": "mmHg"}, {"measurement": "Intraocular pressure in the right eye", "setting": "[1]; [9]", "result": 12.54, "unit": "mmHg"}, {"measurement": "Intraocular pressure in the left eye", "setting": "[1]; [10]", "result": 4.96, "unit": "mmHg"}, {"measurement": "Intraocular pressure in the left eye", "setting": "[1]; [11]", "result": 5.96, "unit": "mmHg"}, {"measurement": "Intraocular pressure in the left eye", "setting": "[1]; [12]", "result": 8.29, "unit": "mmHg"}, {"measurement": "Intraocular pressure in the left eye", "setting": "[1]; [13]", "result": 11.21, "unit": "mmHg"}, {"measurement": "Intraocular pressure in the left eye", "setting": "[1]; [14]", "result": 11.46, "unit": "mmHg"}, {"measurement": "Intraocular pressure in the left eye", "setting": "[1]; [15]", "result": 11.75, "unit": "mmHg"}, {"measurement": "Intraocular pressure in the left eye", "setting": "[1]; [16]", "result": 11.75, "unit": "mmHg"}, {"measurement": "Intraocular pressure in the right eye", "setting": "[1]; [10]", "result": 21.00, "unit": "mmHg"}, {"measurement": "Intraocular pressure in the right eye", "setting": "[1]; [11]", "result": 16.29, "unit": "mmHg"}, {"measurement": "Intraocular pressure in the right eye", "setting": "[1]; [12]", "result": 16.75, "unit": "mmHg"}, {"measurement": "Intraocular pressure in the right eye", "setting": "[1]; [13]", "result": 14.88, "unit": "mmHg"}, {"measurement": "Intraocular pressure in the right eye", "setting": "[1]; [14]", "result": 13.08, "unit": "mmHg"}, {"measurement": "Intraocular pressure in the right eye", "setting": "[1]; [15]", "result": 11.25, "unit": "mmHg"}, {"measurement": "Intraocular pressure in the right eye", "setting": "[1]; [16]", "result": 11.25, "unit": "mmHg"}, {"measurement": "Intraocular pressure in the left eye", "setting": "[1]; [17]", "result": 4.63, "unit": "mmHg"}, {"measurement": "Intraocular pressure in the left eye", "setting": "[1]; [18]", "result": 5.50, "unit": "mmHg"}, {"measurement": "Intraocular pressure in the left eye", "setting": "[1]; [19]", "result": 9.25, "unit": "mmHg"}, {"measurement": "Intraocular pressure in the left eye", "setting": "[1]; [20]", "result": 10.79, "unit": "mmHg"}, {"measurement": "Intraocular pressure in the left eye", "setting": "[1]; [21]", "result": 11.75, "unit": "mmHg"}, {"measurement": "Intraocular pressure in the left eye", "setting": "[1]; [22]", "result": 12.13, "unit": "mmHg"}, {"measurement": "Intraocular pressure in the left eye", "setting": "[1]; [23]", "result": 12.13, "unit": "mmHg"}, {"measurement": "Intraocular pressure in the right eye", "setting": "[1]; [17]", "result": 19.83, "unit": "mmHg"}, {"measurement": "Intraocular pressure in the right eye", "setting": "[1]; [18]", "result": 17.46, "unit": "mmHg"}, {"measurement": "Intraocular pressure in the right eye", "setting": "[1]; [19]", "result": 15.00, "unit": "mmHg"}, {"measurement": "Intraocular pressure in the right eye", "setting": "[1]; [20]", "result": 12.33, "unit": "mmHg"}, {"measurement": "Intraocular pressure in the right eye", "setting": "[1]; [21]", "result": 11.25, "unit": "mmHg"}, {"measurement": "Intraocular pressure in the right eye", "setting": "[1]; [22]", "result": 12.08, "unit": "mmHg"}, {"measurement": "Intraocular pressure in the right eye", "setting": "[1]; [23]", "result": 12.08, "unit": "mmHg"}, {"measurement": "Intraocular pressure in the left eye", "setting": "[2]; 1 hour after administration", "result": 11.63, "unit": "mmHg"}, {"measurement": "Intraocular pressure in the left eye", "setting": "[2]; 2 hours after administration", "result": 11.58, "unit": "mmHg"}, {"measurement": "Intraocular pressure in the left eye", "setting": "[2]; 4 hours after administration", "result": 12.83, "unit": "mmHg"}, {"measurement": "Intraocular pressure in the left eye", "setting": "[2]; 6 hours after administration", "result": 12.38, "unit": "mmHg"}, {"measurement": "Intraocular pressure in the left eye", "setting": "[2]; 8 hours after administration", "result": 12.29, "unit": "mmHg"}, {"measurement": "Intraocular pressure in the left eye", "setting": "[2]; 10 hours after administration", "result": 14.33, "unit": "mmHg"}, {"measurement": "Intraocular pressure in the left eye", "setting": "[2]; before administration", "result": 12.13, "unit": "mmHg"}, {"measurement": "Intraocular pressure in the right eye", "setting": "[2]; 1 hour after administration", "result": 8.38, "unit": "mmHg"}, {"measurement": "Intraocular pressure in the right eye", "setting": "[2]; 2 hours after administration", "result": 7.58, "unit": "mmHg"}, {"measurement": "Intraocular pressure in the right eye", "setting": "[2]; 4 hours after administration", "result": 9.04, "unit": "mmHg"}, {"measurement": "Intraocular pressure in the right eye", "setting": "[2]; 6 hours after administration", "result": 9.88, "unit": "mmHg"}, {"measurement": "Intraocular pressure in the right eye", "setting": "[2]; 8 hours after administration", "result": 11.33, "unit": "mmHg"}, {"measurement": "Intraocular pressure in the right eye", "setting": "[2]; 10 hours after administration", "result": 13.71, "unit": "mmHg"}, {"measurement": "Intraocular pressure in the right eye", "setting": "[2]; before administration", "result": 12.38, "unit": "mmHg"}, {"measurement": "Reduction magnitude of intraocular pressure", "setting": "[2]; 1 hour after administration", "result": 3.25, "unit": "mmHg"}, {"measurement": "Reduction magnitude of intraocular pressure", "setting": "[2]; 2 hours after administration", "result": 4, "unit": "mmHg"}, {"measurement": "Reduction magnitude of intraocular pressure", "setting": "[2]; 4 hours after administration", "result": 3.79, "unit": "mmHg"}, {"measurement": "Reduction magnitude of intraocular pressure", "setting": "[2]; 6 hours after administration", "result": 2.5, "unit": "mmHg"}, {"measurement": "Reduction magnitude of intraocular pressure", "setting": "[2]; 8 hours after administration", "result": 0.96, "unit": "mmHg"}, {"measurement": "Reduction magnitude of intraocular pressure", "setting": "[2]; 10 hours after administration", "result": 0.62, "unit": "mmHg"}, {"measurement": "Reduction magnitude of intraocular pressure", "setting": "[2]; before administration", "result": "−0.25", "unit": "mmHg"}]}
